From patent US20050009057A1, “Assay for detecting the presence of processing inhibitory antibodies against the Apical Membrane Antigen-1 of Plasmodium falciparum in biological samples” (priority 2003, published 2005)
Where two headings read alike, the source gives them in different places.

Assays:
P. falciparum schizonts = assay: Giemsa stained thin smears after rupture cycle (schizont maturation, PCM); type: cell-based, Plasmodium falciparum; settings: for schizont maturation / development on giemsa stained thin smears / Protease inhibitor Clusters of Merozoites (PCM) on giemsa stained slides: inhibitor concentrations as in FIG. 6A
Protocol: (§1) Protease inhibitors. Protease inhibitors were tested for their effect on AMA-1 processing. All inhibitors were from Sigma Chemicals. PMSF, pepstatin and TPCK were dissolved in 100% ethanol. Antipain, leupeptin, and 1,10-phenanthroline stocks were made in water. EDTA and EGTA stocks were made in PBS (pH adjusted to 7.2), TLCK was prepared in 1 mM HCl, E64 and chymostatin were prepared in DMSO. All stocks were at 100× concentration. 1.5 μl of the protease inhibitor or its respective solvent control was added to 15 μl PBS and then 135 μl of (1×10^7/ml) Percoll purified mid-stage schizonts were added. The processing assay was carried out as described above. Parallel assay with protease inhibitors was carried out in two similarly prepared plates to which RBC were also added to a final 4% hematocrit. Parasites in the first plate were allowed to invade in suspension at 37° C. and thin smears were prepared after the rupture cycle for giemsa staining and examination for the presence of Protease inhibitor Clusters of Merozoites (PCM) (Lyon and Haynes, 1986, J. Immunol. 136, 2245-2251). In the second plate parasites (135 μl of 5×10^6/ml schizonts+RBC at 4% hematocrit) were incubated overnight and ring forms were quantitated by flow cytometry as a measure of parasite invasion (Haynes et al., 2002, supra).

[1] = system: PfAMA-1 processing on merozoites; assay: AMA-1 processing assay / processing inhibition assay (PIA), western blot; type: cell-based, P. falciparum clone 3D7; settings: for accumulation of PfAMA-1 66: FIG. 6A, 6B; for formation of trapped PfAMA-1 52 and PfAMA-1 48+44: with trapping antibodies (1:2500 anti-AMA-1 sera pool)
Protocol: AMA-1 processing assay, or processing inhibition assay (PIA). P. falciparum clone 3D7 cultures were prepared as described previously (Haynes and Moch, 2002, Methods Mol. Med. 72, 489-497), culture media included 10% heat inactivated normal human serum in bicarbonate-containing RPMI 1640 containing final 0.42 mM Ca^+2 and 0.40 mM Mg^+2. Fifteen microliters of heat inactivated rabbit serum (dialyzed against RPMI 1640 or used directly after heat inactivation) or purified IgG or Fab fragments was mixed with 135 μl of synchronized (Haynes and Moch, 2002, supra), Percoll-alanine purified (Kanaani and Ginsburg, 1989, J. Biol. Chem. 264, 3194-3199), mid-stage (˜8 nuclei), >90% pure schizonts (1×10^7 per ml) in a 48 well culture plate. PBS was used as a diluent if necessary. The plate was placed in a plastic bag, gassed with 5% O2-5% CO2, heatsealed, and incubated at 37° C. for ˜6 h (Haynes et al., 2002, Methods Mol. Med. 72, 535-554). Aliquots from a control culture flask were taken to monitor the percent rupture of schizonts by hemocytometer. After ˜90% schizonts had ruptured, the contents of each well were transferred to a microfuge tube and centrifuged at 10,000× g for 5 min. The supernatant was aspirated and the resulting parasite pellet was washed with 0.5 ml chilled PBS and centrifuged as before. The supernatant was discarded and 150 μl of 1× NuPAGE sample buffer (Invitrogen) was added to the tubes, samples were frozen at −30° C. until analyzed. Soluble forms of AMA-1 were immuno-precipitated from the processing assay culture supernatants or from culture supernatant of routinely maintained parasites using MagnaBind Goat anti-Rabbit IgG coated Magnetic Beads (Pierce). Two types of western blots have been used to detect AMA-1 fragments. First set of westerns in FIGS. 1 to 6 have been developed using biotinylated polyclonal IgG against recombinant AMA-1. A second set of western blots, FIG. 6 onwards, has been developed using two biotinylated primary antibodies, mAb 28G2dc1 (1:1000) and polyclonal anti-AMA-1 IgG (1:1000) used simultaneously in order to immunostain all the AMA-1 specific fragments on the blot.
as §1
PAGE and Western blotting. Samples were briefly sonicated with a microtip sonicator, heated at 80° C. for 2 min, spun down and 16 μl was applied per well to a precast 4-12% gradient polyacrylamide gel (NuPAGE Bis-Tris; Invitrogen). Samples were run under non-reduced conditions unless specified. DTT at 50 mM was added to samples resolved under reduced conditions. Proteins from the gel were electrophoretically transferred to nitrocellulose membrane and blocked with 5% BSA in PBS containing 0.05% Tween-20 overnight at 4° C. […]

[2] = system: P. falciparum merozoite invasion of RBC; assay: microbe, parasite or virus in culture; type: cell-based, Plasmodium falciparum; settings: for inhibition of RBC invasion: 1 mM
Protocol: as §1

[3] = EDTA, EGTA 1 mM (2-0.25 mM in dose response)

| Structure (SMILES) | schizont maturation / development on giemsa stained thin smears (P. falciparum schizonts) | formation of trapped PfAMA-1 52 and PfAMA-1 48+44 [1] | Protease inhibitor Clusters of Merozoites (PCM) on giemsa stained slides (P. falciparum schizonts) | also measured |
| --- | --- | --- | --- | --- |
| c1cnc2c(c1)ccc1cccnc12 [1,10-phenanthroline] | interrupted schizont maturation |  |  |  |
| O=C(O)CN(CCOCCOCCN(CC(=O)O)CC(=O)O)CC(=O)O [EGTA] |  | inhibited the formation of only PfAMA-148+44 |  | accumulation of PfAMA-1 66 [1, 3]: caused accumulation of PfAMA-166; schizont rupture (P. falciparum schizonts; 1 mM): did not affect schizont rupture; inhibition of RBC invasion [2]: ~20% |
| CC(C)C[C@H](NC(=O)[C@@H](NC(=O)N[C@@H](Cc1ccccc1)C(=O)O)[C@@H]1CCN=C(N)N1)C(=O)N[C@H](C=O)Cc1ccccc1 [chymostatin] | did not block schizont development | formation of both PfAMA-152 and PfAMA-148+44 were inhibited | PCM's were observed | accumulation of PfAMA-1 66 ([1]; chymostatin 100-12.5 μM): found to accumulate; inhibition at 100 µM ([2]; Plasmodium falciparum, read-out: inhibition of merozoite invasion): > 90% |
| CC(C)C[C@H](NC(=O)[C@H]1O[C@@H]1C(=O)O)C(=O)NCCCCN=C(N)N [E64] |  |  | PCM's were observed |  |
| Cc1ccc(S(=O)(=O)N[C@@H](Cc2ccccc2)C(=O)CCl)cc1 [TPCK] | interrupted schizont maturation |  |  |  |
| O=S(=O)(F)Cc1ccccc1 [PMSF] | interrupted schizont maturation |  |  |  |
| CC(=O)N[C@@H](CC(C)C)C(=O)N[C@@H](CC(C)C)C(=O)N[C@H](C=O)CCCNC(=N)N [leupeptin] |  |  | PCM's were observed |  |
| O=C(O)CN(CCN(CC(=O)O)CC(=O)O)CC(=O)O [EDTA] |  | inhibited the formation of only PfAMA-148+44 |  | accumulation of PfAMA-1 66 [1, 3]: caused accumulation of PfAMA-166; schizont rupture (P. falciparum schizonts): did not affect schizont rupture; inhibition of RBC invasion [2]: ~40% |
| Cc1ccc(S(=O)(=O)N[C@@H](CCCCN)C(=O)CCl)cc1 [TLCK] | interrupted schizont maturation |  |  |  |
